Reference: patent publication US12398132B2, “Derivatives of 4-(imidazo[1,2-a]pyridin-3-yl)-n-(pyridinyl)pyrimidin-2-amine as therapeutic agents” (AUCENTRA THERAPEUTICS PTY LTD, priority 2019, dated 2025)
pKi: −log10 of the molar value. Where two headings read alike, the source gives them in different places.

Assays:
CDK2E1 = CDK2E1 (Homo sapiens, UniProt P24941); conditions: 1 µM
U937 = assay: Proliferation assay (resazurin/MTT), U937; assay type: cell-based; conditions: Homo sapiens, U-937, read-out: 72 h Growth inhibition GI50, U937 cells
CDK6/D3 = CDK6/D3 (Homo sapiens, UniProt Q00534); assay: ADP Glo kinase assay, CDK6/D3; assay type: biochemical; conditions: CDK6D3; for remaining activity at 10 µM: compound at 10 μM, read-out: residual enzymatic activity (%) at 10 μM; for remaining activity at 1 µM: compound at 1 μM (values marked *), read-out: residual enzymatic activity (%) at 1 μM*
Chain of CDK6/D3 (Q00534 whole entry, species assumed): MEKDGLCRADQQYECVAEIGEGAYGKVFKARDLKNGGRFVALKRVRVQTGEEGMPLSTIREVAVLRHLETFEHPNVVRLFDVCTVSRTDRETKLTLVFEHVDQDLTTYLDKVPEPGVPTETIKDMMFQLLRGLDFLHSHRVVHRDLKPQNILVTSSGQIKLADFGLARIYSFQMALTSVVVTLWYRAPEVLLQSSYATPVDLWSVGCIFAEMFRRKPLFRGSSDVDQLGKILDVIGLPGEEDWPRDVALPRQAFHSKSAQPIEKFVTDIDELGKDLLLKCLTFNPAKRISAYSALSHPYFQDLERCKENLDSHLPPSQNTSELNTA
Chain of CDK6/D3 (P30281 whole entry partner, species assumed): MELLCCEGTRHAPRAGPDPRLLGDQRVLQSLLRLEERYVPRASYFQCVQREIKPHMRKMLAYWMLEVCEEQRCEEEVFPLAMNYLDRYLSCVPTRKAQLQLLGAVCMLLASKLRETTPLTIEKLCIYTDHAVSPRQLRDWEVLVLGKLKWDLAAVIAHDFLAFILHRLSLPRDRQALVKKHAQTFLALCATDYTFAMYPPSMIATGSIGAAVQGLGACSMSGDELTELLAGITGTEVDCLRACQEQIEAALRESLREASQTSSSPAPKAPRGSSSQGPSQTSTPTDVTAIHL

MV-4-11 = assay: Proliferation assay (resazurin/MTT), MV-4-11; assay type: cell-based; conditions: Homo sapiens, MV4-11, read-out: 72 h Growth inhibition GI50, MV-4-11 cells
CDK9/CyclinT1 = CDK9/CyclinT1 (Homo sapiens, UniProt P50750); assay: ADP Glo kinase assay, CDK9/CyclinT1; assay type: biochemical; conditions: CDK9T1; for pKi: apparent Ki calculated from Km (ATP) and IC50, read-out: CDK inhibition Ki; for remaining activity at 10 µM: compound at 10 μM, read-out: residual enzymatic activity (%) at 10 μM; for remaining activity at 1 µM: compound at 1 μM (values marked *), read-out: residual enzymatic activity (%) at 1 μM*
Chain of CDK9/CyclinT1 (P50750 whole entry, species assumed): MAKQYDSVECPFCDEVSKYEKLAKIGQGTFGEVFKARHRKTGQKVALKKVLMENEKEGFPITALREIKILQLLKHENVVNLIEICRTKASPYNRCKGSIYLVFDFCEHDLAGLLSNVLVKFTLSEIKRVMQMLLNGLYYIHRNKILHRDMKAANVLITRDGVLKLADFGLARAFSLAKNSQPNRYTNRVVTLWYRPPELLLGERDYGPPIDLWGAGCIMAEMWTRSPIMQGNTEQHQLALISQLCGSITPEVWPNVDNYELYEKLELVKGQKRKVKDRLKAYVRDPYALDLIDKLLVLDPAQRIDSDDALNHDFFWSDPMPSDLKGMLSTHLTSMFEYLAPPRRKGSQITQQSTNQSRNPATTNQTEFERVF
Chain of CDK9/CyclinT1 (O60563 whole entry partner, species assumed): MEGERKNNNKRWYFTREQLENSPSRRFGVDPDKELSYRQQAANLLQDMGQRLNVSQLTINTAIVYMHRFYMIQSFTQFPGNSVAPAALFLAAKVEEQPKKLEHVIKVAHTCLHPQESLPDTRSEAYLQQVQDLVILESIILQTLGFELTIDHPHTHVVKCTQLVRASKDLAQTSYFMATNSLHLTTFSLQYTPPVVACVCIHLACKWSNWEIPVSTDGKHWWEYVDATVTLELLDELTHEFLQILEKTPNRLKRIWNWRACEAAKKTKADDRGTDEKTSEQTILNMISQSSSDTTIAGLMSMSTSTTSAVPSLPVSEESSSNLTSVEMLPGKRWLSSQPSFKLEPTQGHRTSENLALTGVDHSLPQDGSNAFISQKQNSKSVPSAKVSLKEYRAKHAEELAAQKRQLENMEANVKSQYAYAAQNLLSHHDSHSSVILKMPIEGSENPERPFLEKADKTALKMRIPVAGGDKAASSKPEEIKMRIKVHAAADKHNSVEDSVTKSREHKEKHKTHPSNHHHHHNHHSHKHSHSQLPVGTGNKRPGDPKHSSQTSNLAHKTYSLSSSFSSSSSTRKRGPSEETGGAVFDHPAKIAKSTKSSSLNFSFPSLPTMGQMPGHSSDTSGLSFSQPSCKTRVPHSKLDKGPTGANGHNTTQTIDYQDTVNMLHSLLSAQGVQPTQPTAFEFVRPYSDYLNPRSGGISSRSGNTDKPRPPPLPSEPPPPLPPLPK
Method: Inhibition of FLT3(WT), FLT3(ITD) and FLT3(D835Y) and CDKs were determined using ADP Glo Kinase assays (Promega Corporation, Madison, WI, USA). […] Similarly, kinase reaction for CDK4/D1 and CDK6/D3 was performed with reaction buffer (40 nM Tris base pH 7.5, 20 mM MgCl2, 0.4 mM DTT), 0.1 mg/ml BSA and RB-CTF substrate (retinoblastoma protein1 C-terminal fraction). For CDK9/CyclinT1, the kinase reaction was performed with the standard assay buffer and Kinase Dilution Buffer and RBER-IRStide substrate. Half-maximal inhibition (IC50) values were calculated using a 4-parameter logistic non-linear regression model with Graphpad prism (Version 6.0). Apparent inhibition constants (Ki) values were calculated from Km (ATP) and IC50 values for the respective kinases.

CDK4/D1 = CDK4/D1 (Homo sapiens, UniProt P11802); assay: ADP Glo kinase assay, CDK4/D1; assay type: biochemical; conditions: CDK4D1; for remaining activity at 10 µM: compound at 10 μM, read-out: residual enzymatic activity (%) at 10 μM; for remaining activity at 1 µM: compound at 1 μM (values marked *), read-out: residual enzymatic activity (%) at 1 μM*
Chain of CDK4/D1 (P11802 whole entry, species assumed): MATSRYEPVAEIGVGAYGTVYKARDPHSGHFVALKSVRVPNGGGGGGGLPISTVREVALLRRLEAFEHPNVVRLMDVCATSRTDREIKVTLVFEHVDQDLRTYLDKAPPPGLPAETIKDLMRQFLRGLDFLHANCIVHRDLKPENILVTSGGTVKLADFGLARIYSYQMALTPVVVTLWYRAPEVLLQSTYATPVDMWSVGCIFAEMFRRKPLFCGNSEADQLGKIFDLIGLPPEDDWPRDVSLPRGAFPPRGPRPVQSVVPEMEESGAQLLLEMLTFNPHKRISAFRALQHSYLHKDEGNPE
Chain of CDK4/D1 (P24385 whole entry partner, species assumed): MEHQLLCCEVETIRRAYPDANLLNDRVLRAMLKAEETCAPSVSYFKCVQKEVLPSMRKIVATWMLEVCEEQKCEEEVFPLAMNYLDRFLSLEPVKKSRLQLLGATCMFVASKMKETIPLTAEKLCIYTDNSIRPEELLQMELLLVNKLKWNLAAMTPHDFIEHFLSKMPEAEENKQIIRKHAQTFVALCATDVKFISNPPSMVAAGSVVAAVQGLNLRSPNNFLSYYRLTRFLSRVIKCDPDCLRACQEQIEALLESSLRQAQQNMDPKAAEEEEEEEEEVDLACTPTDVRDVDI

CDK1B = CDK1B (Homo sapiens, UniProt P06493)
Chain of CDK1B (P06493 whole entry): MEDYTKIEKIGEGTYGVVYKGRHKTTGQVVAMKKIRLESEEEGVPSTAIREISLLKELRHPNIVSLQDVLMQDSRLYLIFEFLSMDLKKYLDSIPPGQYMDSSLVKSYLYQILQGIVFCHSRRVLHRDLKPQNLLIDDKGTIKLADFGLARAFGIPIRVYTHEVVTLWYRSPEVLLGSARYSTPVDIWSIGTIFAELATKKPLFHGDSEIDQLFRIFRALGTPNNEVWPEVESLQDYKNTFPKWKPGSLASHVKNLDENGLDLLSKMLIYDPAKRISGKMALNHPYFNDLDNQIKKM
Chain of CDK1B (P14635 whole entry partner): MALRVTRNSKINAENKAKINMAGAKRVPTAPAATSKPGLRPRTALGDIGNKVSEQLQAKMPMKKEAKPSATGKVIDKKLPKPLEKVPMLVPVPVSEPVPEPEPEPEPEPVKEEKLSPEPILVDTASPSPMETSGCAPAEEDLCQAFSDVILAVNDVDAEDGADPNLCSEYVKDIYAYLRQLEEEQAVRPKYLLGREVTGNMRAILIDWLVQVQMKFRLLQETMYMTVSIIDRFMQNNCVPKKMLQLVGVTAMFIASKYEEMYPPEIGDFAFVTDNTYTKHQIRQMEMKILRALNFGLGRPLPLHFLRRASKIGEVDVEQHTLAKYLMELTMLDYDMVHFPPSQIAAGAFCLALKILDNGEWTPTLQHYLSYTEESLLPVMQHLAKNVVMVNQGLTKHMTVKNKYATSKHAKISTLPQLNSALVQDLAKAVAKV

CDK7HMAT1 = CDK7HMAT1 (Homo sapiens, UniProt P50613);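 further: kinase activity measured with an ADP-Glo luminescent kinase assay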
Chain of CDK7HMAT1 (P50613 whole entry): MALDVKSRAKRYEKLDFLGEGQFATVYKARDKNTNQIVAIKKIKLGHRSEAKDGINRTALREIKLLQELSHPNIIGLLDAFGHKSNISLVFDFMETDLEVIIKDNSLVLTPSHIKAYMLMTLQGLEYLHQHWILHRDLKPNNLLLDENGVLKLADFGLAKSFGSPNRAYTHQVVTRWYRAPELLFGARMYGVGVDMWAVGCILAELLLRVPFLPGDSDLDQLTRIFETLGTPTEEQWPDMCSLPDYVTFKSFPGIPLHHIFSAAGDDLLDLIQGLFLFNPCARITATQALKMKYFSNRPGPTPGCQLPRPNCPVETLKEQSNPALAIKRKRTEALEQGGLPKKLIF
Chain of CDK7HMAT1 (P51946 whole entry partner): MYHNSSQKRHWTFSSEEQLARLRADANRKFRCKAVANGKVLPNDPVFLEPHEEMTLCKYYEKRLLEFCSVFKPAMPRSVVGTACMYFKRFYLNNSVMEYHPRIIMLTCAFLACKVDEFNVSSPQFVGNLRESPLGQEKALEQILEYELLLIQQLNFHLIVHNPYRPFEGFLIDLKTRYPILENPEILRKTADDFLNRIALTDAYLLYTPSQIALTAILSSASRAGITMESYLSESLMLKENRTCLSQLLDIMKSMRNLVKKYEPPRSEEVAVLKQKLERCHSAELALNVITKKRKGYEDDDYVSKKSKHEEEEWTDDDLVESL
Chain of CDK7HMAT1 (P51948 whole entry partner): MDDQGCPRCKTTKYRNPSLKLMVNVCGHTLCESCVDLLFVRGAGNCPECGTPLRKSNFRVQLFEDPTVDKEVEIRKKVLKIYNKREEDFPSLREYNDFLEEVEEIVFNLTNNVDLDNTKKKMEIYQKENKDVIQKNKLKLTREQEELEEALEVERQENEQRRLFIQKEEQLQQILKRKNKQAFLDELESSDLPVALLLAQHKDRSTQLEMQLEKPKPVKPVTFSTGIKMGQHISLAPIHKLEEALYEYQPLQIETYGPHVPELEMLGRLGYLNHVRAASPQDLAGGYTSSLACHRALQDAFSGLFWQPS

| SMILES | activity (CDK2E1) [%] | GI50 (U937) [nM] | remaining activity at 10 µM (CDK6/D3) [%] | GI50 (MV-4-11) [nM] | pKi (CDK9/CyclinT1) | remaining activity at 10 µM (CDK4/D1) [%] | activity (CDK1B; 10 µM) [%] | activity (CDK7HMAT1; 10 µM) [%] | pKi (CDK6/D3; apparent Ki calculated from Km (ATP) and IC50, read-out: CDK inhibition Ki) | remaining activity at 10 µM (CDK9/CyclinT1) [%] | remaining activity at 1 µM (CDK6/D3) [%] | remaining activity at 1 µM (CDK9/CyclinT1) [%] | remaining activity at 1 µM (CDK4/D1) [%] | activity (CDK1B; 1 µM) [%] | activity (CDK7HMAT1; 1 µM) [%] |
| --- | --- | --- | --- | --- | --- | --- | --- | --- | --- | --- | --- | --- | --- | --- | --- |
| CC(=O)N1CCCN(c2ccc(Nc3nccc(-c4cnc5ccccn45)n3)nc2)CC1 [Cmpd 6, 1-(4-(6-((4-(Imidazo[1,2-a]pyridin-3-yl)pyrimidin-2-yl)amino)pyridin-3-yl)-1,4-diazepan-1-yl)ethan-1-one] | 85 | 11400 | 24 | 35 | 5.86 | 48 | 50 | 70 | – | – | – | – | – | – | – |
| CC(=O)N1CCN(c2ccc(Nc3nccc(-c4cnc5ccc(C(F)(F)F)cn45)n3)nc2)CC1 [Cmpd 11, 1-(4-(6-((4-(6-(Trifluoromethyl)imidazo[1,2-a]pyridin-3-yl)pyrimidin-2-yl)amino)pyridin-3-yl)piperazin-1-yl)ethan-1-one] | 97 | 3900 | – | 14 | – | 46 | 38 | 60 | < 5.30 | 32 | – | – | – | – | – |
| CC(=O)N1CCN(c2ccc(Nc3nccc(-c4cnc5ccc(-c6ccccc6)cn45)n3)nc2)CC1 [Cmpd 14, 1-(4-(6-((4-(6-Phenylimidazo[1,2-a]pyridin-3-yl)pyrimidin-2-yl)amino)pyridin-3-yl)piperazin-1-yl)ethan-1-one] | 56 | 664 | 92 | 7 | 6.16 | 69 | 94 | 78 | – | – | – | – | – | – | – |
| CC(=O)N1CCN(c2ccc(Nc3nccc(-c4cnc5ccc(-c6cccnc6)cn45)n3)nc2)CC1 [Cmpd 15, 1-(4-(6-((4-(6-(Pyridin-3-yl)imidazo[1,2-a]pyridin-3-yl)pyrimidin-2-yl)amino)pyridin-3-yl)piperazin-1-yl)ethan-1-one] | 88 | 1480 | 91 | 5 | 6.17 | 77 | 64 | 65 | – | – | – | – | – | – | – |
| CC(=O)N1CCN(c2ccc(Nc3nccc(-c4cnc5ccc(-c6cnc(N)nc6)cn45)n3)nc2)CC1 [Cmpd 18, 1-(4-(6-((4-(6-(2-Aminopyrimidin-5-yl)imidazo[1,2-a]pyridin-3-yl)pyrimidin-2-yl)amino)pyridin-3-yl)piperazin-1-yl)ethan-1-one] | 97 | 8700 | 100 | 23 | – | 48 | 69 | 99 | – | – | – | – | – | – | – |
| COc1ncc(-c2ccc3ncc(-c4ccnc(Nc5ccc(N6CCN(C(C)=O)CC6)cn5)n4)n3c2)cn1 [Cmpd 19, 1-(4-(6-((4-(6-(2-Methoxypyrimidin-5-yl)imidazo[1,2-a]pyridin-3-yl)pyrimidin-2-yl)amino)pyridin-3-yl)piperazin-1-yl)ethan-1-one] | 82 | 6710 | 65 | 17 | – | 53 | 96 | 54 | – | 33 | – | – | – | – | – |
| CC(=O)N1CCN(c2ccc(Nc3ncc(C)c(-c4cnc5ccccn45)n3)nc2)CC1 [Cmpd 44, 1-(4-(6-((4-(Imidazo[1,2-a]pyridin-3-yl)-5-methylpyrimidin-2-yl)amino)pyridin-3-yl)piperazin-1-yl)ethan-1-one] | 66 | > 10000 | – | 387 | – | – | – | – | – | – | 68 | 93 | 63 | 91 | – |
| CN1CCN(c2ccc(Nc3nccc(-c4cnc5ccc(-c6ccccc6)cn45)n3)nc2)CC1 [Cmpd 46, N-(5-(4-Methylpiperazin-1-yl)pyridin-2-yl)-4-(6-phenylimidazo[1,2-a]pyridin-3-yl)pyrimidin-2-amine] | – | 2400 | – | 7 | – | – | – | – | – | – | 86 | – | 63 | – | – |
| CS(=O)(=O)N1CCN(c2ccc(Nc3nccc(-c4cnc5ccccn45)n3)nc2)CC1 [Cmpd 48, 4-(Imidazo[1,2-a]pyridin-3-yl)-N-(5-(4-(methylsulfonyl)piperazin-1-yl)pyridin-2-yl)pyrimidin-2-amine] | 73 | 1880 | – | 48 | – | – | – | – | – | – | 71 | 43 | 76 | 90 | – |

More lines, now with the values ahead:

| activity (CDK2E1) [%] | GI50 (U937) [nM] | remaining activity at 10 µM (CDK6/D3) [%] | GI50 (MV-4-11) [nM] | pKi (CDK9/CyclinT1) | remaining activity at 10 µM (CDK4/D1) [%] | activity (CDK1B; 10 µM) [%] | activity (CDK7HMAT1; 10 µM) [%] | pKi (CDK6/D3; apparent Ki calculated from Km (ATP) and IC50, read-out: CDK inhibition Ki) | remaining activity at 10 µM (CDK9/CyclinT1) [%] | remaining activity at 1 µM (CDK6/D3) [%] | remaining activity at 1 µM (CDK9/CyclinT1) [%] | remaining activity at 1 µM (CDK4/D1) [%] | activity (CDK1B; 1 µM) [%] | activity (CDK7HMAT1; 1 µM) [%] | SMILES |
| --- | --- | --- | --- | --- | --- | --- | --- | --- | --- | --- | --- | --- | --- | --- | --- |
| 59 | 1410 | 40 | 30 | 6.54 | 27 | 27 | 82 | – | – | – | – | – | – | – | CC(=O)N1CCN(c2ccc(Nc3nccc(-c4cnc5ccc(F)cn45)n3)nc2)CC1 [Cmpd 8, 1-(4-(6-((4-(6-Fluoroimidazo[1,2-a]pyridin-3-yl)pyrimidin-2-yl)amino)pyridin-3-yl)piperazin-1-yl)ethan-1-one] |
| 67 | 400 | 42 | 9 | – | 93 | 70 | 86 | – | 29 | – | – | – | – | – | CC(=O)N1CCN(c2ccc(Nc3nccc(-c4cnc5ccc(-c6ccco6)cn45)n3)nc2)CC1 [Cmpd 12, 1-(4-(6-((4-(6-(Furan-2-yl)imidazo[1,2-a]pyridin-3-yl)pyrimidin-2-yl)amino)pyridin-3-yl)piperazin-1-yl)ethan-1-one] |
| 86 | 4560 | 102 | 17 | < 5.30 | 78 | 95 | 97 | – | – | – | – | – | – | – | CC(=O)N1CCN(c2ccc(Nc3nccc(-c4cnc5ccc(-c6cc7ccccc7o6)cn45)n3)nc2)CC1 [Cmpd 21, 1-(4-(6-((4-(6-(Benzofuran-2-yl)imidazo[1,2-a]pyridin-3-yl)pyrimidin-2-yl)amino)pyridin-3-yl)piperazin-1-yl)ethan-1-one] |
| 83 | > 10000 | 102 | 2 | < 5.30 | 64 | 100 | 106 | – | – | – | – | – | – | – | CC(=O)N1CCN(c2ccc(Nc3nccc(-c4cnc5ccc(-c6cc7ccccc7s6)cn45)n3)nc2)CC1 [Cmpd 22, 1-(4-(6-((4-(6-(Benzo[b]thiophen-2-yl)imidazo[1,2-a]pyridin-3-yl)pyrimidin-2-yl)amino)pyridin-3-yl)piperazin-1-yl)ethan-1-one] |
| 76 | 323 | 71 | 1 | 6.38 | 50 | 59 | 55 | – | – | – | – | – | – | – | CC(=O)N1CCN(c2ccc(Nc3nccc(-c4cnc5ccc(-c6cc[nH]c6)cn45)n3)nc2)CC1 [Cmpd 23, 1-(4-(6-((4-(6-(1H-Pyrrol-3-yl)imidazo[1,2-a]pyridin-3-yl)pyrimidin-2-yl)amino)pyridin-3-yl)piperazin-1-yl)ethan-1-one] |
| 73 | 538 | – | 4 | – | – | – | – | – | – | 73 | 36 | 73 | 95 | 83 | CC(=O)N1CCN(c2ccc(Nc3nccc(-c4cnc5ccc(-c6ccsc6)cn45)n3)nc2)CC1 [Cmpd 26, 1-(4-(6-((4-(6-(Thiophen-3-yl)imidazo[1,2-a]pyridin-3-yl)pyrimidin-2-yl)amino)pyridin-3-yl)piperazin-1-yl)ethan-1-one] |
| 89 | 883 | – | 2 | – | – | – | – | – | – | 70 | 31 | 70 | 88 | 93 | CC(=O)N1CCN(c2ccc(Nc3nccc(-c4cnc5ccc(-c6cnn(C)c6)cn45)n3)nc2)CC1 [Cmpd 27, 1-(4-(6-((4-(6-(1-Methyl-1H-pyrazol-4-yl)imidazo[1,2-a]pyridin-3-yl)pyrimidin-2-yl)amino)pyridin-3-yl)piperazin-1-yl)ethan-1-one] |
| 92 | > 10000 | – | 38 | – | – | – | – | – | – | 85 | 69 | 95 | 101 | – | CC(=O)N1CCN(c2ccc(Nc3nccc(-c4cnc5ccc(-c6cc7ccccc7n6C)cn45)n3)nc2)CC1 [Cmpd 39, 1-(4-(6-((4-(6-(1-Methyl-1H-indol-2-yl)imidazo[1,2-a]pyridin-3-yl)pyrimidin-2-yl)amino)pyridin-3-yl)piperazin-1-yl)ethan-1-one] |
| – | 4330 | – | 9 | – | – | – | – | – | – | – | 52 | – | – | – | CS(=O)(=O)N1CCN(c2ccc(Nc3nccc(-c4cnc5ccc(-c6ccccc6)cn45)n3)nc2)CC1 [Cmpd 54, N-(5-(4-(Methylsulfonyl)piperazin-1-yl)pyridin-2-yl)-4-(6-phenylimidazo[1,2-a]pyridin-3-yl)pyrimidin-2-amine] |
